Test system: ZL34 cells
Test: BNCT in vitro: viable cells 24 h after neutron irradiation (trypan blue)
Type: cell-based, human
Settings: ZL34, 187.5 µM 24 h, thermal neutrons 15 min 30 kW, 24 h after irradiation
Procedure: 75 flasks of MCF7 (4 flasks), ZL34 (4 flasks) and AB22 (4 flasks) were seeded at a density of 1.8 × 10^6 cells, 1.2 × 10^6 cells and 5.5 × 10^5 cells, respectively. 24 h later for MCF7 and ZL34 and 72 h later for AB22, 2 flasks of each cell lines were incubated for 24 h in the presence of 72 µM, 187.5 µM and 130 µM of CA-SF, respectively. After the incubation, cells were washed with PBS and their medium was renewed. Two flasks of MCF7, ZL34 and AB22 cells incubated with CA-SF and two flasks containing non-treated control cells were irradiated for 15′ at 30 kW reactor power in the thermal column of the TRIGA Mark II reactor at the University of Pavia, Italy. At the end of the irradiation, the medium was removed, it was replaced with fresh medium and flasks were placed at 37 °C in a humidified atmosphere of 5% CO2.
The proliferation assay was carried out following the same procedure reported in reference 32. The day after irradiation cells were detached with 0.05% trypsin and 0.02% EDTA and the trypan blue exclusion test of cell viability was performed. Cell viability was reported as percentage of cells observed in treated a/o irradiated samples relative to that observed in control cells.

1-Sulfonamidomethyl-o-carborane [CA-SF]
viability of CA-SF treated and irradiated cells vs CA-SF treated cells: comparable

Source: paper PMC7648750, “In vitro and in vivo BNCT investigations using a carborane containing sulfonamide targeting CAIX epitopes on malignant pleural mesothelioma and breast cancer cells” (Scientific Reports, 2020)
